# According to patent publication US9610232B2, “Use of sphinganine to improve the visual appearance of skin and hair” (EVONIK DEGUSSA GMBH, priority 2011, dated 2017):
# What was measured:
# stem cell markers = assay: Gene expression studies in cell cultures; assay type: cell-based
# From the text: A further subject matter of the present invention is consequently the cosmetic use of sphinganine for modulating stem cell markers.
# [1] = system: sebum production of the skin; assay: Human sebum study: skin sebum on the forehead measured with Sebumeter SM 815; assay type: in vivo; settings: lotion with 0.1% sphinganine, topical to forehead twice daily, 28 days (T4 vs T0); compared to the starting value and to the vehicle group; 14 female subjects
# Method: The panel comprised 30 female subjects aged 21-45 years, with 14 subjects applying a lotion containing 0.1% sphinganine and 16 subjects applying a lotion without sphinganine (vehicle control).
# The application phase comprised 28 days, with application taking place twice daily (morning and evening) to the forehead.
# The skin sebum was measured using a Sebumeter SM 815® from Courage+Khazaka electronic GmbH, Cologne, Germany. The measurements were taken in the middle of the forehead in the region of the glabella lines. The average value calculated from the individual values of three repeat measurements was registered. On the evening before each measurement no formulation was applied. Three hours before the measurement, the forehead was cleaned using a wipe (babylove sensitive wipes, dm-drogerie markt, Karlsruhe, Germany). The measurements were carried out in each case at a time of day defined individually for each subject in the period between 12:00 and 14:30 hours. The sebum value at time point T0 before the application phase and T4 after 28 days was determined.
# hair grease production = assay: Human scalp health study: hair tonic applied to scalp, greasiness by subjective evaluation and Sebutape method; assay type: in vivo; settings: hair tonic with 0.2% sphinganine, 3 mL to scalp twice daily, 4 months; vehicle control; 16 subjects per group
# Method: The panel comprised 32 subjects (mixed male/female, minimum age 30, with a tendency for greasy scalp/greasy hair), with 16 subjects in each case applying a hair tonic with 0.2% sphinganine or without sphinganine (vehicle control). The application phase comprised 4 months, with the hair tonic being applied to the scalp twice daily (morning and evening) with the help of a pipette with a defined volume of 3 mL, and gently massaged in using the hands. The test parameters included the shine of the hair and the greasiness of the scalp. The greasiness of the scalp is carried out firstly by means of a subjective evaluation (self and expert estimation), and secondly by means of a “Sebutape” method in accordance with manufacturers instructions. Time points for carrying out the measurements were before the start of application, after two months and after four months.
structure (smiles),measurement,setting,value
CCCCCCCCCCCCCCC[C@@H](O)[C@@H](N)CO [sphinganine],expression of stem cell markers,stem cell markers,beneficially modulated the expression of so-called stem cell markers
same,sebum production,[1],statistically significant reduction in sebum production
same,hair grease production,hair grease production,significant reduction in hair grease production
